Results from ChEMBL document CHEMBL4513146, “CO-ADD screening of Karazin Kharkiv National University (Ukraine) compounds”.

Assays:
[1] = test system: Escherichia coli; experiment: microbe, parasite or virus in culture; conditions: ATCC 25922, 18 h, ASSAY_TEST Inhibition of Bacterial Growth, detection method Absorption (OD600), MEDIA CAMHB, plate type 384well, NBS, CORNING #3640
Description: Antibacterial activity against Escherichia coli ATCC 25922 (CO-ADD:GN_001); MIC in CAMBH media using NBS plates, by OD(600)

[2] = test system: Staphylococcus aureus; experiment: microbe, parasite or virus in culture; conditions: ATCC 43300, 18 h, ASSAY_TEST Inhibition of Bacterial Growth, detection method Absorption (OD600), MEDIA CAMHB, plate type 384well, NBS, CORNING #3640
Description: Antibacterial activity against Staphylococcus aureus MRSA ATCC 43300 (CO-ADD:GP_020); MIC in CAMBH media, using NBS plates, by OD(600)

[3] = test system: Cryptococcus neoformans
Description: Antifungal activity against Cryptococcus neoformans H99 ATCC 208821 (CO-ADD:FG_002); MIC in YNB media using NBS plates, by Resazurin OD(600-570)

[4] = test system: Acinetobacter baumannii; experiment: microbe, parasite or virus in culture; conditions: ATCC 19606, 18 h, ASSAY_TEST Inhibition of Bacterial Growth, detection method Absorption (OD600), MEDIA CAMHB, plate type 384well, NBS, CORNING #3640
Description: Antibacterial activity against Acinetobacter baumannii ATCC 19606 (CO-ADD:GN_034); MIC in CAMBH media using NBS plates, by OD600

[5] = test system: HEK293; experiment: cells; format: functional; conditions: Homo sapiens, ATCC CRL1573, HEK293; ASSAY_TEST Inhibition of Cell Viability; detection method Resazurin; Fluorescence (ex560/em590); MEDIA DMEM with 10% FBS; plate type 384well; TC; CORNING #3712; time 18 hr
[6] = test system: Candida albicans; experiment: microbe, parasite or virus in culture; conditions: ATCC 90028, ASSAY_TEST Inhibition of Fungal Growth, detection method Absorption (OD530)
Description: Antifungal activity against Candida albicans ATCC 90028 (CO-ADD:FG_001); MIC in YNB media using NBS plates, by OD630

[7] = test system: Pseudomonas aeruginosa; experiment: microbe, parasite or virus in culture; conditions: ATCC 27853, 18 h, ASSAY_TEST Inhibition of Bacterial Growth, detection method Absorption (OD600), MEDIA CAMHB, plate type 384well, NBS, CORNING #3640
Description: Antibacterial activity against Pseudomonas aeruginosa ATCC 27853 (CO-ADD:GN_042); MIC in CAMBH media using NBS plates, by OD(600)

[8] = test system: Klebsiella pneumoniae; experiment: microbe, parasite or virus in culture; conditions: ATCC 700603, 18 h, ASSAY_TEST Inhibition of Bacterial Growth, detection method Absorption (OD600), MEDIA CAMHB, plate type 384well, NBS, CORNING #3640
Description: Antibacterial activity against Klebsiella pneumoniae MDR ATCC 70063 (CO-ADD:GN_003); MIC in CAMBH media using NBS plates, by OD(600)

[9] = test system: Pseudomonas aeruginosa; experiment: Antibacterial activity against Pseudomonas aeruginosa PAO397 [PAO1 d(mexAB-oprM) d(mexCD-oprJ) d(mexEF-oprN) d(mexJKL) d(mexXY) d(opmH)] (CO-ADD:GN_211); MIC in CAMBH media using NBS plates, by OD(600); format: functional; conditions: ASSAY_TEST Inhibition of Bacterial Growth, detection method Absorption (OD600), MEDIA CAMHB, plate type 384well, CORNING #3640, time 18 hr

Cc1cccc(NC(=O)Cn2nc3c(Sc4ccc(C)cc4C)nccn3c2=O)c1
> 32 µg/mL: MIC [1] | MIC [2] | MIC [3] | MIC [4] | CC50 [5] | MIC [6] | MIC [7] | MIC [8]

Cc1ccc(CN(c2ccc(F)c(F)c2)S(=O)(=O)c2cccn3cnnc23)cc1
> 32 µg/mL: MIC [1] | MIC [2] | MIC [3] | MIC [4] | CC50 [5] | MIC [6] | MIC [7] | MIC [8] | MIC [9]
